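Results reflect a 48-hour exposure of cells in 96-well plates to compound at five concentrations. GI50: concentration for 50% inhibition of growth.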 The source made the active and inactive calls. Rule as the data show it: active = GI50 up to about 1.1 µM and inactive = higher.
Key:
Assay in all cases: NCI-60 cell line screen, 48 h
A498 = test system: A498
A549 = test system: A549
ACHN = test system: ACHN
CCRF-CEM = test system: CCRF-CEM
COLO 205 = test system: COLO 205
EKVX = test system: EKVX
HCC 2998 = test system: HCC 2998
HCT-116 = test system: HCT-116
HCT-15 = test system: HCT-15
HL-60 = test system: HL-60
HOP-62 = test system: HOP-62
HOP-92 = test system: HOP-92
HT-29 = test system: HT-29
Hs-578T = test system: Hs-578T
IGROV-1 = test system: IGROV-1
K562 = test system: K562
KM12 = test system: KM12
LOX IMVI = test system: LOX IMVI
MCF7 = test system: MCF7
MDA-MB-435 = test system: MDA-MB-435
MDA-N = test system: MDA-N
MOLT-4 = test system: MOLT-4
NCI-H23 = test system: NCI-H23
NCI-H460 = test system: NCI-H460
NCI/ADR-RES = test system: NCI/ADR-RES
OVCAR-3 = test system: OVCAR-3
OVCAR-4 = test system: OVCAR-4
OVCAR-8 = test system: OVCAR-8
PC-3 = test system: PC-3
RPMI-8226 = test system: RPMI-8226
RXF 393 = test system: RXF 393
SF-268 = test system: SF-268
SF-295 = test system: SF-295
SF-539 = test system: SF-539
SK-MEL-28 = test system: SK-MEL-28
SK-MEL-5 = test system: SK-MEL-5
SK-OV-3 = test system: SK-OV-3
SN12C = test system: SN12C
SNB-19 = test system: SNB-19
SNB-75 = test system: SNB-75
SR = test system: SR
SW-620 = test system: SW-620
T47D = test system: T47D
TK-10 = test system: TK-10
U-251 = test system: U-251
UACC-62 = test system: UACC-62
786-0 = test system: 786-0
DU-145 = test system: DU-145
M14 = test system: M14
NCI-H522 = test system: NCI-H522
OVCAR-5 = test system: OVCAR-5
SK-MEL-2 = test system: SK-MEL-2
UACC-257 = test system: UACC-257
UO-31 = test system: UO-31

## CC(C)N1CSC(=S)N(Cc2ccccc2)C1
A498
  GI50: > 10 µM (inactive)
A549
  GI50: > 10 µM (inactive)
ACHN
  GI50: > 10 µM (inactive)
CCRF-CEM
  GI50: 2.78 µM (inactive)
COLO 205
  GI50: 3.94 µM (inactive)
EKVX
  GI50: > 10 µM (inactive)
HCC 2998
  GI50: > 10 µM (inactive)
HCT-116
  GI50: 3.01 µM (inactive)
HCT-15
  GI50: 3.4 µM
HL-60
  GI50: 0.197 µM (active)
HOP-62
  GI50: > 10 µM (inactive)
HOP-92
  GI50: 2.84 µM (inactive)
HT-29
  GI50: 2.43 µM (inactive)
Hs-578T
  GI50: > 10 µM (inactive)
IGROV-1
  GI50: > 10 µM (inactive)
K562
  GI50: 2.48 µM (inactive)
KM12
  GI50: 3.36 µM (inactive)
LOX IMVI
  GI50: 3.66 µM (inactive)
MCF7
  GI50: 4.16 µM (inactive)
MDA-MB-435
  GI50: 3.84 µM (inactive)
MDA-N
  GI50: 2.42 µM (inactive)
MOLT-4
  GI50: 2.63 µM (inactive)
NCI-H23
  GI50: 3.1 µM (inactive)
NCI-H460
  GI50: > 10 µM (inactive)
NCI/ADR-RES
  GI50: > 10 µM (inactive)
OVCAR-3
  GI50: 3.87 µM (inactive)
OVCAR-4
  GI50: > 10 µM (inactive)
OVCAR-8
  GI50: 4.75 µM (inactive)
PC-3
  GI50: 3.75 µM (inactive)
RPMI-8226
  GI50: 2.58 µM (inactive)
RXF 393
  GI50: 2.37 µM (inactive)
SF-268
  GI50: 4.38 µM (inactive)
SF-295
  GI50: > 10 µM (inactive)
SF-539
  GI50: 1.48 µM (inactive)
SK-MEL-28
  GI50: 3.78 µM (inactive)
SK-MEL-5
  GI50: 4.66 µM (inactive)
SK-OV-3
  GI50: > 10 µM (inactive)
SN12C
  GI50: 4.49 µM (inactive)
SNB-19
  GI50: 0.752 µM (active)
SNB-75
  GI50: 2.8 µM (inactive)
SR
  GI50: 1.64 µM (inactive)
SW-620
  GI50: 3.18 µM (inactive)
T47D
  GI50: 4.29 µM (inactive)
TK-10
  GI50: 3.61 µM (inactive)
U-251
  GI50: > 10 µM (inactive)
UACC-62
  GI50: 4.06 µM (inactive)

## CCC1C(c2cccc(OC)c2O)c2cc3c(cc2OC1N1CCCC1)OCO3 (stereo not drawn)
786-0
  GI50: 16.1 µM (inactive)
A549
  GI50: 17.4 µM (inactive)
ACHN
  GI50: 15 µM (inactive)
CCRF-CEM
  GI50: 12.6 µM (inactive)
COLO 205
  GI50: > 10 µM (inactive)
DU-145
  GI50: > 10 µM (inactive)
EKVX
  GI50: 22.8 µM (inactive)
HCC 2998
  GI50: 10 µM (inactive)
HCT-116
  GI50: 8.47 µM (inactive)
HCT-15
  GI50: 12.2 µM
HOP-62
  GI50: 18.4 µM (inactive)
HT-29
  GI50: 16.5 µM (inactive)
Hs-578T
  GI50: 3.75 µM (inactive)
IGROV-1
  GI50: 14.9 µM (inactive)
K562
  GI50: 11.8 µM (inactive)
KM12
  GI50: 12 µM (inactive)
LOX IMVI
  GI50: 23.3 µM (inactive)
M14
  GI50: 6.43 µM (inactive)
MCF7
  GI50: 22.2 µM (inactive)
MDA-MB-435
  GI50: 3.85 µM (inactive)
MDA-N
  GI50: 3.24 µM (inactive)
MOLT-4
  GI50: 12.8 µM (inactive)
NCI-H23
  GI50: 26.4 µM (inactive)
NCI-H460
  GI50: 20.2 µM (inactive)
NCI-H522
  GI50: 10.7 µM (inactive)
NCI/ADR-RES
  GI50: 15.7 µM (inactive)
OVCAR-3
  GI50: 13.8 µM (inactive)
OVCAR-5
  GI50: 20.1 µM (inactive)
OVCAR-8
  GI50: 20.6 µM (inactive)
PC-3
  GI50: 16.6 µM (inactive)
RPMI-8226
  GI50: 12.6 µM (inactive)
SF-268
  GI50: 16.7 µM (inactive)
SF-295
  GI50: 16.8 µM (inactive)
SF-539
  GI50: 12.2 µM (inactive)
SK-MEL-28
  GI50: 16.3 µM (inactive)
SK-MEL-2
  GI50: 17.1 µM (inactive)
SK-MEL-5
  GI50: 10.4 µM (inactive)
SN12C
  GI50: 18.1 µM (inactive)
SNB-19
  GI50: 14.6 µM (inactive)
SNB-75
  GI50: 17.7 µM (inactive)
SR
  GI50: 14.9 µM (inactive)
SW-620
  GI50: 12.2 µM (inactive)
T47D
  GI50: 16.2 µM (inactive)
TK-10
  GI50: 16.4 µM (inactive)
UACC-257
  GI50: 17.8 µM (inactive)
UACC-62
  GI50: 17.5 µM (inactive)
UO-31
  GI50: 14.1 µM (inactive)
